# B1: SOS-box dsDNA (AT-repeat) (dsDNA)
# DNA 1: GATGCCTGCGGATACTGTATATATATACAGTATCAATTCTGGCT
# DNA 2: AGCCAGAATTGATACTGTATATATATACAGTATCCGCAGGCATC
# Tests used:
# [1] = target: T1, RecAPa*-induced FlAsH-LexAPa CTD autoproteolysis (Pseudomonas aeruginosa, UniProt P37452); test: FP-based RecA*-induced LexA autoproteolysis in vitro assay; assay type: biochemical, P. aeruginosa; conditions: highest concentration tested, range 0.2 to 2 mM
# T1 construct: 6His-SUMO (N, cleaved yes); made in house; host or cells: E. coli BL21(DE3)
# Procedure: A custom-made library of 318 small molecules (MW < 1000 Da) has been screened at two different concentrations (25 μg/mL and 125 μg/mL, corresponding to molar concentrations of 30–170 μM and 150–850 μM, respectively) on the P. aeruginosa SOS system by a previously validated fluorescence polμarization (FP)-based RecA*-induced LexA autoproteolysis in vitro assay. , 1 μM FlAsH-LexAPa ^CTD and 1 μM preactivated RecA*Pa were incubated with the screened chemical fragments for 1 h at 37 °C before measuring FP.
# Then, the FP-based LexA autoproteolysis assay was repeated on the two hits, monitoring the full kinetics of LexA cleavage over a 1 h incubation and exploring a wide range of drug concentrations (10–1000 μM).
# A custom-made library of 318 chemical fragments (25 mg/mL stock solutions in DMSO), provided by P. Kavaliauskas (Weill Cornell Medicine of Cornell University) was screened in vitro for their ability to inhibit RecAPa*-mediated LexAPa autoproteolysis by a Fluorescence Polarization (FP)-based assay. , Twenty microliter reactions were set up in Nunc 384-Well Black microplates, and final reaction mixtures included 1 μM FlAsH-LexAPa ^CTD, the compounds (5% v/v DMSO in all the samples, including the controls devoid of compounds), and 1 μM RecAPa* (FP Buffer in the negative control; 30 mM Hepes, 150 mM NaCl, pH 7.1). The initial screening was performed with two dilutions of the compounds (25 and 125 μg/mL). The FP signal was measured after a 1 h incubation at 37 °C by an EnVision MultiMode Plate Reader (PerkinElmer) equipped with opportune FP filters and mirrors. To obtain LexAPa ^CTD autoproteolysis percent inhibition, FP data were scaled from 0% (corresponding to the positive control sample) to 100% (negative control).
# Compounds displaying an inhibition of at least 50% at the highest concentration and a rather consistent increase in activity at the two tested concentrations were selected as the hits.
# The same FP assay was carried out on serial dilutions of selected compounds to determine the dose–response relationship. To evaluate the effect of a reducing environment, 2 mM Tris(2-carboxyethyl)-phosphine (TCEP) was added to the reaction mixtures. The FP signal of FlAsH-LexAPa ^CTD alone was detected for 5 min before adding the compounds. The system was monitored for an additional 5 min in the presence of the tested compounds in order to observe potential aggregation events. Then, RecAPa* was added, and the autoproteolysis reaction was followed for 1 h at 37 °C (1 reading per minute). FlAsH-LexAPa ^CTD autoproteolysis percent inhibition was calculated as mentioned above and plotted as a function of compound concentration. Experimental data fitting was performed with GraphPad Prism 8 to obtain the absolute IC50.
# P. aeruginosa PAO1 = test: Antimicrobial susceptibility testing (MIC); assay type: cell-based, P. aeruginosa PAO1 (ATCC 15692); conditions: for MIC: Pseudomonas aeruginosa, PAO1
# Procedure: The MIC of compound A12 and antibiotics was determined by using the Clinical Laboratory Standard Institute (CLSI) recommendations with minor modifications. […] Microplates were incubated in a humidified incubator for 18 h at 37 °C, and the bacterial growth was quantified by OD600. According to CLSI, MICs are defined as the lowest concentrations of antimicrobial agents that prevent visible growth.
# [2] = tested on: P. aeruginosa PAO1 on THP-1-derived macrophages; test: P. aeruginosa PAO1 colonization of THP-1-derived macrophages; assay type: cell-based; conditions: single agent: ciprofloxacin 0.5 μg/mL or A12 100 μg/mL; 3 h infection
# Procedure: THP-1-derived macrophages were generated from THP-1 monocytes as previously described, with minor modifications. , Briefly, THP-1 monocytes were washed three times with antibiotic-free RPMI 1640 medium and resuspended in complete antibiotic-free RPMI 1640 supplemented with 300 nM phorbol 12-myristate 13-acetate (PMA). Cells were incubated for 24 h, followed by a 48 h rest period in PMA-free RPMI 1640 prior to use in subsequent experiments. […] PMA-differentiated THP-1-derived macrophages were similarly trypsinized and seeded into 24-well plates at 5 × 10^5 cells/well in complete, antibiotic-free RPMI supplemented with FBS. Cells were incubated overnight to allow for attachment. Immediately prior to infection, the medium was aspirated, and cells were washed three times with Dulbecco’s phosphate-buffered saline. […] Infection was synchronized by centrifuging plates at 1000g for 1 min. […] Following the infection period, the medium was aspirated, and cells were washed three times with DPBS to remove unattached bacteria and residual test compounds. […] In both cases, the resulting lysates were serially diluted in DPBS and plated on tryptic soy agar plates. Plates were incubated at 37 °C for 24 h, after which colonies were enumerated. Bacterial burden was expressed as the CFU per well.
# [3] = target: LexAPa S125A (uncleavable mutant) (Pseudomonas aeruginosa ATCC 27853, UniProt P37452 1-204, S125A); test: EMSA; no A12, 10% DMSO; 8 uM LexA, 1 uM DNA; conditions: protein: recombinant; chain copies: 2; blunt
# [4] = A12 (32 μg/mL) (+), in combination
Molecule,MIC on P. aeruginosa PAO1 (P. aeruginosa PAO1; [4]) [µg/mL],MIC (P. aeruginosa PAO1; A12 (32 μg/mL) (−)) [µg/mL],also measured
"O=C(O)CCNc1ccccc1CCc1ccccc1NCCC(=O)O [BG-191, 3,3′-((ethane-1,2-diylbis(2,1-phenylene))bis(azanediyl))dipropionic acid]",,,LexAPa autocleavage percent inhibition of A12 derivatives [1]: 20%
"CC(CC(=O)O)Nc1ccccc1CCc1ccccc1NC(C)CC(=O)O (stereo not shown) [BG-194, 3,3′-((ethane-1,2-diylbis(2,1-phenylene))bis(azanediyl))dibutyric acid]",,,LexAPa autocleavage percent inhibition of A12 derivatives [1]: did not display any inhibitory activity
CO/N=C(\C(=O)N[C@@H]1C(=O)N2C(C(=O)O)=C(CSc3nc(=O)c(=O)[nH]n3C)CS[C@H]12)c1csc(N)n1 [Ceftriaxone],8,8,
"O=C(O)c1cn(C2CC2)c2cc(N3CCNCC3)c(F)cc2c1=O [Ciprofloxacin, reference compound]",,,Total (adherent + intracellular) burden of PAO1 on THP-1-derived macrophages [2]: diminished
C[C@H]1COc2c(N3CCN(C)CC3)c(F)cc3c(=O)c(C(=O)O)cn1c23 [Levofloxacin],0.125,0.0625,
COc1c(N2C[C@@H]3CCCN[C@@H]3C2)c(F)cc2c(=O)c(C(=O)O)cn(C3CC3)c12 [Moxifloxacin],,0.0312,
CN(C)[C@@H]1C(O)=C(C(N)=O)C(=O)[C@@]2(O)C(O)=C3C(=O)c4c(O)cccc4[C@@](C)(O)[C@H]3C[C@@H]12 [Tetracycline],4,4,
Gentamycin,2,,MIC on P. aeruginosa PAO1 (P. aeruginosa PAO1; A12 (32 μg/mL) (−)): 2 µg/mL
B1,,,binding result [3]: binds

# Source: article PMC12706794, “Identification and Characterization of a Small-Molecule Inhibitor of the Pseudomonas aeruginosa SOS Response” (ACS Infectious Diseases, 2025)
